Laboratory results: publication doi:10.1101/2025.03.14.643303, “A genome-scale drug discovery pipeline uncovers new therapeutic targets and a unique p97 allosteric binding site in Schistosoma mansoni” (bioRxiv, 2025)
Entries after “also recorded” stand apart in the source; their conditions may differ. Read-outs that look alike come from different tables or passages of the source.

Assays:
adult S. mansoni worms [1] = assay: Treatment of adult S. mansoni worms in culture with inhibitors (attachment to tissue culture substrate, morphology; single 10 μM and dose-response EC50); assay type: cell-based, Schistosoma mansoni; settings: for effect on adult parasites: inhibitors of human targets; for EC50: read-out: S. mansoni EC50
Description: Adult S. mansoni (NMRI strain) (6–7 weeks post-infection) worms were harvested from infected female Swiss Webster mice by hepatic portal vein perfusion using 37°C DMEM (Mediatech, Manassas, VA), 8% Horse Serum, and heparin.
Roughly 5 adult worm pairs were placed in 3mL Basch medium in a 12-well culture vessel, and incubated at 37°C, 5% CO2 for the length of the experiment. Compound was administered at D0, D1, and D2, media and drug refreshed every 24 hr. Worms were then allowed to remain in culture until D5, where a final assessment of worm attachment to tissue culture substate was made by light microscopy. Observations on movement and morphology were also recorded. A negative control (0.1% DMSO) and positive control (PZQ; 10 μM in 0.1% DMSO) were included in each experiment, and each experiment was repeated in triplicate for validation. For compounds that caused complete detachment in replicate experiments, the treatment was expanded to three concentrations (10 μM, 5 μM, and 1 μM) following the same treatment schedule and controls as detailed above. […] Each titration experiment was performed in triplicate according to the treatment regimen described above, using DMSO and PZQ as appropriate controls. Morphologies and motility were assessed by light microscopy, and dose-response curves were calculated using the primary readout of parasite attachment to tissue culture substrate in GraphPad Prism. […]
[…] Values were calculated using Prism.

[2] = target: S. mansoni p97 (Smp_018240) (Schistosoma mansoni, UniProt G4M0P7); assay: biochemical; settings: for Fold Selectivity: H. sapiens vs S. mansoni p97 IC50
Description: E. coli BL21 (DE3) containing the desired plasmid were grown in LB medium containing […] kanamycin while shaking at 37 °C to an OD600 of 0.6–0.8. The temperature was reduced to 18°C and 0.8 mM isopropyl-beta-D-thiogalactopyranoside (IPTG) was added. The bacterial culture was harvested 16hr later by centrifugation. The resulting pellet was suspended in 60 mL lysis buffer/2L bacterial culture [20 mM Tris (pH 7.4), 300 mM NaCl, 5 mM MgCl2, 20 mM imidazole, 1% Triton X-100, 1 mg/mL lysozyme, 10% glycerol, 3 mM β-mercaptoethanol, 0.2 mM PMSF, and protease inhibitor tablet (Roche)]. […] The lysate was centrifuged at 40,000 × rpm for 35 min at 4°C. The resulting supernatant was incubated with Ni-NTA beads equilibrated to lysis buffer for 1 hr at 4°C before being loaded onto a gravity column. The bead bed was washed with wash buffer [20 mM Tris (pH 7.4), 500 mM NaCl, 5 mM MgCl2, 40 mM imidazole, 0.05% Triton X-100, 10% glycerol, 3 mM β-mercaptoethanol, 0.2 mM PMSF, 0.001 mg/mL Aprotinin, and 0.002 mg/mL Leupeptin], then eluted in the same buffer with 250 mM imidazole in wash buffer. Fractions containing p97 were concentrated using Pierce Protein Concentrators (100k MWCO) and loaded onto a gel-filtration column (Superdex 200PG) and eluted using SEC buffer [20 mM Tris (pH 7.4), 180 mM NaCl, 5 mM MgCl2, and 10% glycerol] at 0.5 mL/min flow rate on a BioRad NGC Chromatography System. Fractions corresponding to an apparent molecular weight of 500 – 600 kDa were collected and analyzed by 4–20% SDS/PAGE to evaluate purity. Concentration was determined using a BSA standard. Fractions containing purified protein were aliquoted, snap frozen in liquid nitrogen, and stored at −80 °C until use.
For manual ATP consumption assays, 1 μM p97 was incubated with 1% DMSO or inhibitor (1% DMSO final) in assay buffer [50 mM Tris (pH 7.5), 20 mM MgCl2, 1 mM EDTA, 0.5 mM tris(2-carboxyethyl)phosphine (TCEP)] for 5 minutes prior to the addition of 20 μM ATP in a 384-well plate for a total reaction volume of 10 μL, and a final concentration of 500nM enzyme and 10 μM ATP. The reaction was allowed to proceed for 50 minutes at room temperature before adding equivalent volume of Kinase-Glo Plus reagent (Promega), and a further incubation of 10 minutes in the dark.
IC50 values were calculated using GraphPad Prism.

H. sapiens p97 (P55072) = target: T1, H. sapiens p97 (P55072) (Homo sapiens, UniProt P55072); assay: p97 ATPase activity, ATP consumption assay (Kinase-Glo), IC50 / counter screen; assay type: biochemical
T1 construct: 6xHis (C); made in house; host or cells: E. coli BL21 (DE3)

[3] = tested on: K48 polyubiquitinated proteins; assay: Western blot of drug-treated worm lysate with K48-linkage specific polyubiquitin antibody; assay type: cell-based, Schistosoma mansoni; settings: worm lysate after 48 hr of treatment
Description: For drug treatment studies, 10 male adult worms (single or paired with females) were supplemented with either 0.1% DMSO or inhibitor (0.1% DMSO final). […]. After 48 hr, male parasites were separated from females using 0.25% tricaine in Basch Media 169, flash frozen in liquid nitrogen, and stored at −80°C until further processing. Male worm samples were homogenized with a pestle in 50 μL lysis buffer containing 2X sample buffer [0.471 M Tris (pH 6.7 with phosphoric acid), 20% glycerol, 5% SDS), protease inhibitor cocktail (Roche, cOmplete Mini, EDTA-free Tablets) and 10 mM DTT. The lysates were then sonicated on high for 5 min (30 sec on, 30 sec off) using a Bioruptor UCD-200. Lysates were centrifuged for 5 min at 10,000 g to remove debris. Total protein was measured using the Detergent Compatible Bradford Assay (Pierce). 50 μg of protein samples denatured in SDS Sample buffer (95°C for 5 min) were separated on a Bio-Rad 4–20% TGX Stain-Free gel along with Precision Plus Protein Dual Color Standards (Bio-Rad) as a marker. Proteins were then transferred to a nitrocellulose membrane (Bio-Rad). The membrane was blocked in a 1:5 solution of Li-Cor Odyssey Blocking buffer in PBST for 1 hr before being immunoblotted overnight at 4°C with 1:500 K48-linkage Specific Polyubiquitin Antibody (Cell Signaling Technology, 4289S) and 0.01 μg/mL mouse anti-actin antibody (1:10,000) (Developmental Studies Hybridoma Bank, JLA20) diluted in a 1:5 solution of Li-Cor Odyssey Blocking buffer in PBST. The membrane was washed 3x in TBST and then incubated in 1:5 Li-Cor Odyssey Blocking buffer containing the secondary antibodies (1:10,000 Li-Cor, 925–68071, goat anti-rabbit IRDye 680 RD, and 1:20,000 Li-Cor, 925–32280, goat anti-mouse IgM IRDye 800CW) for 1 hr at RT. The blot was washed in TBST 3x before being imaged on a LiCor Odyssey Infrared Imager.

adult S. mansoni worms [4] = tested on: adult S. mansoni worms; set-up: method as in PMID 32973031; settings: schistosomes in vitro; cited from earlier work
HepG2 cells = assay: HepG2 cytotoxicity assay (Cell Titer Glo 2.0); assay type: cell-based, human
Description: HepG2 cells (ATCC) were plated at 2500 cells/well in 50 μL/well, dispersing cells using a 25g needle to break up clumps prior to plating. Plates were incubated for 24hr at 37C, 5% CO2. Following 24hr, 50 μL media containing 0.6% DMSO was added to a set of wells on one plate. The plate and Cell Titer Glo 2.0 reagent were brought to RT. A T=0 read was taken by adding 40 μL reagent/well, rocking the plate at 100 rpm for 2 min, then reading luminescence ~10 min later. […] 50 μL 2x concentrated compound was added to wells containing cells in 50 μL 24 hr after plating. Concentrations were tested in triplicate at following values: 30, 10, 3.3, 1.1, 0.37, 0.12, and 0.04 μM. Plates were incubated for 72 hr at 37C, 5% CO2. Following equilibration to room temperature, 40 μL undiluted reagent was added to each well, the plate rocked at 100 rpm for 2 min and then read for luminescent signal ~10 min later.
Values are plotted in excel and the 50% point determined by interpolation. Values were revisualized in Prism.

[5] = recombinant enzyme, Kinase-Glo, Fig. 3D, read-out: S. mansoni (IC50)
[6] = recombinant enzyme, Kinase-Glo, Fig. 3D

T1 sequence (P55072 whole entry): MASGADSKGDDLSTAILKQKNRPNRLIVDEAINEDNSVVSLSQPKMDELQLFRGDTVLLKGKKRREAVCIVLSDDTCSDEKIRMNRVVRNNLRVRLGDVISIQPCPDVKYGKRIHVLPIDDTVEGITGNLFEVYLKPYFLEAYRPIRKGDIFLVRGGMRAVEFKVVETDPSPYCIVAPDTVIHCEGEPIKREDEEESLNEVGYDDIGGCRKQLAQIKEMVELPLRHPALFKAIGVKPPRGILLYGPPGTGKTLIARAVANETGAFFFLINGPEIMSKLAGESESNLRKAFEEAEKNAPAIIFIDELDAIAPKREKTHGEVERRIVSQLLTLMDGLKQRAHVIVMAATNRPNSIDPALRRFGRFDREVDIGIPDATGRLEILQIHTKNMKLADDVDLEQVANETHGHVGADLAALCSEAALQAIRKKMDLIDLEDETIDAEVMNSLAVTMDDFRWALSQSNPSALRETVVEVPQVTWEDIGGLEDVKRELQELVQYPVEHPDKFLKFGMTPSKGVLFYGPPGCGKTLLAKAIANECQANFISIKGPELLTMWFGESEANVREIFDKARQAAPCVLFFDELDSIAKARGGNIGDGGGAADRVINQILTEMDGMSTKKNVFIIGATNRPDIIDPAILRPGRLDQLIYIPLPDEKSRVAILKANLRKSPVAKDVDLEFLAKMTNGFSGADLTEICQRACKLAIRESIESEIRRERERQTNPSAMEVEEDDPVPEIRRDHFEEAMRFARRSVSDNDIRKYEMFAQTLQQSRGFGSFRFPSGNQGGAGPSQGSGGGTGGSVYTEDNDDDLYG
S. mansoni p97 (Smp_018240), sequence (G4M0P7 entry or part of it): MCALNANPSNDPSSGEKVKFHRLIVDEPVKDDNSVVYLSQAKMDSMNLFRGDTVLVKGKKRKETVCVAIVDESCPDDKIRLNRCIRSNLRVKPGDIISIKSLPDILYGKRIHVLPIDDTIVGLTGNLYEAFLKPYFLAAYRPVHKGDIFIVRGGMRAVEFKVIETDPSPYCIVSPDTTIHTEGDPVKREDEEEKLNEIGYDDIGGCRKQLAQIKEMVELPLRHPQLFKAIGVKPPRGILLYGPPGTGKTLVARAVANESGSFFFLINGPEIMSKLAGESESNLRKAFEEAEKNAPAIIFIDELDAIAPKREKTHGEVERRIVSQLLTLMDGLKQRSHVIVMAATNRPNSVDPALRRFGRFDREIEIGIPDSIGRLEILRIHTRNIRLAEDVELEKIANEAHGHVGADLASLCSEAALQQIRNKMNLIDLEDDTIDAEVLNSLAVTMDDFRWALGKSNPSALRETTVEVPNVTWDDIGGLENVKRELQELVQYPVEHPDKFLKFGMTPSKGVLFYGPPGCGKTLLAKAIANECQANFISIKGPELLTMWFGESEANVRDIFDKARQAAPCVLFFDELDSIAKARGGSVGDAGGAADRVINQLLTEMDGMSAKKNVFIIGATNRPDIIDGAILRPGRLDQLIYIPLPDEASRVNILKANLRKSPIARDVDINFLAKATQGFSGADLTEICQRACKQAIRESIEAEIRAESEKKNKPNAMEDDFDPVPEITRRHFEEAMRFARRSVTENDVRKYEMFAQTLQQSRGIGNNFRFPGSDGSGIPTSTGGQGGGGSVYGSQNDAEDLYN

SMILES	effect on adult parasites (adult S. mansoni worms [1]; 10 μM)	IC50 [2, 5]	IC50 (H. sapiens p97 (P55072); [6])	accumulation of K48 polyubiquitinated proteins by western blot [3]	parasite death in vitro (adult S. mansoni worms [4])	further results
c1ccc(CNc2nc(NCc3ccccc3)c3ccccc3n2)cc1 [DbeQ, reference compound]	activity on the worms	12000 nM	910 ± 390 nM	did not observe the same accumulation	–	–
CC(C)C[C@H](NC(=O)[C@H](Cc1ccccc1)NC(=O)c1cnccn1)B(O)O [bortezomib]	–	–	–	–	killed	–
Cc1cc(OCc2nnc(SC3CCCC3)n2-c2cccnc2)ccc1-c1ccc(S(C)(=O)=O)cc1 [NMS-873]	–	230 ± 75 nM	–	accumulation of proteins targeted for proteasome-mediated degradation	sub-micromolar	–
O=C(C#Cc1ccncc1)Nc1ccc2oc(-c3ccccn3)nc2c1 [Compound 739, N-(2-(pyridin-2-yl)benzo[d]oxazol-5-yl)-3-(pyridin-4-yl)propiolamide]	–	–	–	accumulation of K48 polyubiquitin moieties	–	time to detachment of adult worms in culture (adult S. mansoni worms [1]; 10 μM): ≤ 24 h; EC50 (adult S. mansoni worms [1]; Schistosoma mansoni, adult parasites, fraction of worms attached, 72 hours of drug treatment, in culture until D5, 50 μM - 10 nM, Suppl. Fig. 9C): 1300 nM; effect on adult worms (adult S. mansoni worms [1]; benzoxazole propiolamide series, 10 μM, treated 72 hours, monitored until D5): death of the parasites; Fold Selectivity ([2]; Suppl. Fig. 9C): 2.1; IC50 ([2]; schistosome p97 enzyme, read-out: IC50): 150 nM; IC50 (H. sapiens p97 (P55072); Hs p97, 100 μM – 1 nM, Suppl. Fig. 9C): 320 ± 26 nM; GI50 (HepG2 cells; Homo sapiens, HepG2, 72 h): 850 nM; IC50 (HepG2 cells; Homo sapiens, HepG2, 72 h): 1200 nM; GI50 (HepG2 cells; Homo sapiens, HepG2, read-out: HepG2 GI50): 850 nM; IC50 (HepG2 cells; Homo sapiens, HepG2, read-out: HepG2 IC50): 1200 nM
CC1(C)C(N(O)C(=O)Nc2ccc(Cl)cc2)N(c2ccc(Cl)cc2)C(=O)N1CC(=O)N/N=C/C=C/c1ccc([N+](=O)[O-])o1 (stereo not shown) [Eeyarestatin I, reference compound]	effective	–	–	did not see significant increases in K48 abundance	–	–
COc1cccc2c(NCc3ccccc3)nc(-n3c(N)nc4ccccc43)nc12 [ML240, reference compound]	killed parasites quickly	66 ± 9.7 nM	330 ± 61 nM	did not observe the same accumulation	–	selectivity for the schistosome enzyme over its human counterpart [2]: ~ 5 fold
CC(C)N1CCN(CCNC2CCN(c3cccc(-c4cc5cc(F)ccc5[nH]4)c3)CC2)CC1 [UPCDC-30245, reference compound]	effective	4100 nM	970 ± 67 nM	did not see significant increases in K48 abundance	–	selectivity between schistosome and human p97 [2]: selective in favor of the human enzyme; also recorded: decreased potency
Cc1cc2c(C(N)=O)cccc2n1-c1nc2c(c(NCc3ccccc3)n1)COCC2 [CB-5083, reference compound]	–	–	–	accumulation of proteins targeted for proteasome-mediated degradation	sub-micromolar	EC50 (adult S. mansoni worms [1]; worms, Suppl. Fig. 11E): 360 nM; Fold Selectivity ([2]; Suppl. Fig. 11D): 2.0; selectivity for the schistosome enzyme over its human counterpart ([2]; S. mansoni vs H. sapiens p97 IC50): ~ 2 fold; GI50 (HepG2 cells; HepG2, 72 hr, 50% growth inhibition normalized to time = 0, Suppl. Fig. 11A, read-out: GI50): 310 nM; IC50 (HepG2 cells; HepG2, 72 hr, 50% growth inhibition relative to control, Suppl. Fig. 11A, read-out: IC50): 410 nM; GI50 (HepG2 cells; HepG2, Suppl. Fig. 11E, read-out: HepG2 GI50): 310 nM; IC50 (HepG2 cells; HepG2, Suppl. Fig. 11E, read-out: HepG2 IC50): 410 nM
